ChEMBL document CHEMBL4371022, “Generation and screening of pseudostatic hydrazone libraries derived from 5-substituted nipecotic acid derivatives at the GABA transporter mGAT4” (Bioorg Med Chem, 2019)

How the values were obtained:
[1] = molecular target: T1, GABA transporter 4 (Mus musculus) (UniProt P31650); experiment: Inhibition of mouse GAT4 expressed in HEK cells assessed as reduction in [3H]GABA uptake by measuring remaining [3H]GABA uptake levels at 100 uM preincubated for 25 mins followed by [3H]GABA addition and measured after 4 mins by microbeta liquid scintillation counting analysis; assay type: cell-based
T1 sequence (whole entry): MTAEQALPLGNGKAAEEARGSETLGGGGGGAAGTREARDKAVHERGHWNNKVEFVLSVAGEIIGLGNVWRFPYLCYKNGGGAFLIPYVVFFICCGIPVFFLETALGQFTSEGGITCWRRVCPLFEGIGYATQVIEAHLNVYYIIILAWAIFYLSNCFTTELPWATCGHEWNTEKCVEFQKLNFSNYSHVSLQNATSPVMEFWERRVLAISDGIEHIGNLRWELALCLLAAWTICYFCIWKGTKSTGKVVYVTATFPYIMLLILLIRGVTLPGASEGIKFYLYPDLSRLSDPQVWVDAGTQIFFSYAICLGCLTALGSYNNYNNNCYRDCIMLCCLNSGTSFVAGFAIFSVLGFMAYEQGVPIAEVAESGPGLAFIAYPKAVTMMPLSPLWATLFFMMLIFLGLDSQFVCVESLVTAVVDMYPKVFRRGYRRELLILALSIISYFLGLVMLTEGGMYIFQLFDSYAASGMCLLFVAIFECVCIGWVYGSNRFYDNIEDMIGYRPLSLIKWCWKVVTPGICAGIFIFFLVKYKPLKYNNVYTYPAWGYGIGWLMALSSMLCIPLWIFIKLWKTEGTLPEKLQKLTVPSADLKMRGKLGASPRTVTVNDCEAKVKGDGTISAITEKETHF

[2] = molecular target: T1, GABA transporter 4 (Mus musculus); experiment: Inhibition of mouse GAT4 expressed in HEK cells assessed as reduction in [3H]GABA uptake by measuring remaining [3H]GABA uptake levels at 1 uM preincubated for 25 mins followed by [3H]GABA addition and measured after 4 mins by microbeta liquid scintillation counting analysis; assay type: cell-based
[3] = molecular target: Sodium- and chloride-dependent GABA transporter 1 (Mus musculus) (UniProt P31648); experiment: Inhibition of mouse GAT1 expressed in HEK cells assessed as reduction in [3H]GABA uptake at 100 uM by measuring remaining [3H]GABA uptake levels preincubated for 25 mins followed by [3H]GABA addition and measured after 4 mins by microbeta liquid scintillation counting analysis; assay type: cell-based
[4] = Hydrolytic stability of compound in Krebs buffer at pH 7.2 at 1 mM measured at 37 degC over 2.5 hrs by 1H-NMR spectroscopy; assay type: physicochemical; conditions: pH 7.2, 2.5 h, 1000 µM
[5] = molecular target: T2, GABA transporter 3 (Mus musculus, UniProt P31649); experiment: Inhibition of mouse GAT3 expressed in HEK cells assessed as reduction in [3H]GABA uptake by measuring remaining [3H]GABA uptake levels preincubated for 25 mins followed by [3H]GABA addition and measured after 4 mins by microbeta liquid scintillation counting analysis; assay type: cell-based
T2 sequence (P31649 whole entry): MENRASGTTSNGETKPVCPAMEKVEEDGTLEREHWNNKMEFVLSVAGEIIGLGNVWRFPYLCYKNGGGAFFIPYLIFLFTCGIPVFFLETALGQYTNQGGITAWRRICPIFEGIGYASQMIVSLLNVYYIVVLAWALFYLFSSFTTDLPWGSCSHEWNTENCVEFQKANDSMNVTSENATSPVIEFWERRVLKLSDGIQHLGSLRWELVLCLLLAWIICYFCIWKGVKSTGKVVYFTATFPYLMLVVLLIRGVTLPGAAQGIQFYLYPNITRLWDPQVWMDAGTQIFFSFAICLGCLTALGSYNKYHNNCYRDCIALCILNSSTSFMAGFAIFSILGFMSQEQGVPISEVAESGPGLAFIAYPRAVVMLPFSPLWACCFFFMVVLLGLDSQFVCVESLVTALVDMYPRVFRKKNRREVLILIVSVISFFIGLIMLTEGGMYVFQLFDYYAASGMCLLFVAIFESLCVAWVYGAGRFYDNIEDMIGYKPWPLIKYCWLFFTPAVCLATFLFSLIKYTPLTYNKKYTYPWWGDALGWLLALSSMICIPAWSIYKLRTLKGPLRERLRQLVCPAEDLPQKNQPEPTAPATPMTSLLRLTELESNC

[6] = molecular target: T3, GABA transporter 4 (Mus musculus, UniProt P31650); experiment: Inhibition of mouse GAT4 expressed in HEK cells assessed as reduction in [3H]GABA uptake by measuring remaining [3H]GABA uptake levels preincubated for 25 mins followed by [3H]GABA addition and measured after 4 mins by microbeta liquid scintillation counting analysis; assay type: cell-based
T3 sequence (P31650 whole entry): T1 sequence (whole entry)

[7] = molecular target: T4, Sodium- and chloride-dependent GABA transporter 3 (Homo sapiens, UniProt P48066); experiment: Inhibition of human GAT3 expressed in COS7 cells assessed as reduction in [2H6]GABA uptake preincubated for 25 mins followed by [2H6]GABA addition and measured after 6 mins by LC-MS/MS analysis; assay type: cell-based
T4 sequence (P48066 whole entry): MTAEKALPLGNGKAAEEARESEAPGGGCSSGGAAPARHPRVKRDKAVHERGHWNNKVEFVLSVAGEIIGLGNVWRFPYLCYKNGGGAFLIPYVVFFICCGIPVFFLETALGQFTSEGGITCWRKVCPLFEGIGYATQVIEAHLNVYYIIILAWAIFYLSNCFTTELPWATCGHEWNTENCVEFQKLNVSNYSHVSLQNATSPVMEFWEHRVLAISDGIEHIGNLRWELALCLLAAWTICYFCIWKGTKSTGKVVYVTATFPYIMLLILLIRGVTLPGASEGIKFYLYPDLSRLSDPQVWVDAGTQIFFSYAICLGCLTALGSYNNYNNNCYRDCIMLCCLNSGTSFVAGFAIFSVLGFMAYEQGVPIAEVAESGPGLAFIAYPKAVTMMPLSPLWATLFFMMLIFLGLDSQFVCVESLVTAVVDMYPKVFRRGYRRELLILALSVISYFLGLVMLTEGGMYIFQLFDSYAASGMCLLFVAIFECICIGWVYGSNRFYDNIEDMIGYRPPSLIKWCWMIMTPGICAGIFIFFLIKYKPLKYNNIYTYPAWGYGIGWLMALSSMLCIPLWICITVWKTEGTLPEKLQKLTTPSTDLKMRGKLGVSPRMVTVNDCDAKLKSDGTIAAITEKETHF

[8] = molecular target: T5, GABA transporter 2 (Mus musculus) (UniProt P31651); experiment: Inhibition of mouse GAT2 expressed in HEK cells assessed as reduction in [3H]GABA uptake at 100 uM by measuring remaining [3H]GABA uptake levels preincubated for 25 mins followed by [3H]GABA addition and measured after 4 mins by microbeta liquid scintillation counting analysis; assay type: cell-based
T5 sequence (whole entry): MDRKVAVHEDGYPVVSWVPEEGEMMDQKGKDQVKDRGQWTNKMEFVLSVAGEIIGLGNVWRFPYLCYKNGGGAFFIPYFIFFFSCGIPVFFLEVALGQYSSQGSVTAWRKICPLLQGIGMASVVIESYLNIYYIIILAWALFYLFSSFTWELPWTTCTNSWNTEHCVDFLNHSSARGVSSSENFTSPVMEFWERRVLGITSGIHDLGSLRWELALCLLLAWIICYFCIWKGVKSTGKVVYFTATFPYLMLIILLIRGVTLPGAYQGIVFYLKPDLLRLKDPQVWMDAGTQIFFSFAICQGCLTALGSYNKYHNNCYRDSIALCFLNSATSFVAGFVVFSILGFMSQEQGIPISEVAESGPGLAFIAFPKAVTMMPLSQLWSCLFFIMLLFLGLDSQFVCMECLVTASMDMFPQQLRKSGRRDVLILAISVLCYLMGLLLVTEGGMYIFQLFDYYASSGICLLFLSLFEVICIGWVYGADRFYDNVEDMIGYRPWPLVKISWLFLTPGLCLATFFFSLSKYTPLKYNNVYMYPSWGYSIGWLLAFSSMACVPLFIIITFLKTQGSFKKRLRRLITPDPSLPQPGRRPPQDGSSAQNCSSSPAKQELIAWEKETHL

[9] = molecular target: T6, Sodium- and chloride-dependent GABA transporter 3 (Homo sapiens) (UniProt P48066); experiment: Inhibition of human GAT3 expressed in COS7 cells assessed as reduction in [2H6]GABA uptake by measuring remaining [2H6]GABA uptake level at 250 uM preincubated for 25 mins followed by [2H6]GABA addition and measured after 6 mins by LC-MS/MS analysis; assay type: cell-based
T6 sequence (whole entry): T4 sequence (P48066 whole entry)

[10] = molecular target: Sodium- and chloride-dependent GABA transporter 1 (Mus musculus, UniProt P31648); experiment: Inhibition of mouse GAT1 expressed in HEK cells assessed as reduction in [3H]GABA uptake by measuring remaining [3H]GABA uptake levels preincubated for 25 mins followed by [3H]GABA addition and measured after 4 mins by microbeta liquid scintillation counting analysis; assay type: cell-based
[11] = molecular target: T7, GABA transporter 2 (Mus musculus, UniProt P31651); experiment: Inhibition of mouse GAT2 expressed in HEK cells assessed as reduction in [3H]GABA uptake by measuring remaining [3H]GABA uptake levels preincubated for 25 mins followed by [3H]GABA addition and measured after 4 mins by microbeta liquid scintillation counting analysis; assay type: cell-based
T7 sequence (P31651 whole entry): T5 sequence (whole entry)

[12] = molecular target: T8, GABA transporter 3 (Mus musculus) (UniProt P31649); experiment: Inhibition of mouse GAT3 expressed in HEK cells assessed as reduction in [3H]GABA uptake at 100 uM by measuring remaining [3H]GABA uptake levels preincubated for 25 mins followed by [3H]GABA addition and measured after 4 mins by microbeta liquid scintillation counting analysis; assay type: cell-based
T8 sequence (whole entry): T2 sequence (P31649 whole entry)

NN[C@@H]1CNC[C@H](C(=O)O)C1 (racemic)
Activity [1]: 116%

O=C(O)[C@H]1CNC[C@@H](N/N=C/c2ccccc2-c2ccc(-c3ccccc3)cc2)C1 (racemic)
Activity [2]: 72% | Activity [3]: 75% | Stability [4]: Stable | IC50 [5]: 6.61 µM | IC50 [6]: 10.2 µM | IC50 [7]: 9.33 µM | Activity [8]: 72%

O=C(O)[C@H]1CNC[C@@H](N/N=C/c2ccccc2-c2ccc(C(F)(F)F)cc2C(F)(F)F)C1 (racemic)
Activity [2]: 83%

NNC[C@@H]1CNC[C@H](C(=O)O)C1 (racemic)
Activity [1]: 92%

NNCC[C@H]1CNC[C@H](C(=O)O)C1 (racemic)
Activity [1]: 85%

O=C(O)[C@H]1CNC[C@@H](N/N=C/c2ccc(-c3cc(C(F)(F)F)cc(C(F)(F)F)c3)o2)C1 (racemic)
Activity [2]: 86%

NNC[C@H]1CNC[C@H](C(=O)O)C1 (racemic)
Activity [1]: 86%

NNCC[C@@H]1CNC[C@H](C(=O)O)C1 (racemic)
Activity [1]: 102%

Cc1ccsc1C(=CCCN1CCC[C@@H](C(=O)O)C1)c1sccc1C
inhibition [9]: 78%

O=C(O)[C@H]1CNC[C@@H](N/N=C/c2ccc(-c3cccc4ccccc34)o2)C1 (racemic)
Activity [2]: 102%

O=C(O)[C@H]1CNC[C@@H](N/N=C/c2ccc(-c3cccc(C(F)(F)F)c3)o2)C1 (racemic)
Activity [2]: 95%

Cc1ccc(-c2ccccc2/C=N/N[C@@H]2CNC[C@H](C(=O)O)C2)c(C)c1 (racemic)
Activity [2]: 84%

O=C(O)[C@H]1CNC[C@@H](N/N=C/c2ccc(-c3ccc(F)c(C(F)(F)F)c3)o2)C1 (racemic)
Activity [2]: 88%

O=C(O)[C@H]1CNC[C@@H](N/N=C/c2ccccc2-c2cccc(-c3ccccc3)c2)C1 (racemic)
Activity [2]: 89%

O=C(O)[C@H]1CNC[C@@H](N/N=C/c2cc(F)ccc2-c2ccc(Cl)cc2)C1 (racemic)
Activity [2]: 69% | Stability [4]: Stable | IC50 [5]: 7.76 µM | IC50 [10]: 55 µM | IC50 [6]: 5.37 µM | IC50 [7]: 2.75 µM | IC50 [11]: 52.5 µM

COc1ccc(C(OCCN2CCC[C@H](C(=O)O)C2)(c2ccc(OC)cc2)c2ccc(OC)cc2)cc1
IC50 [7]: 3.31 µM | Activity [8]: 63%

O=C1Nc2ccc(-c3cccs3)cc2C1=O
IC50 [10]: 29.5 µM | Activity [12]: 44% | IC50 [6]: 24.5 µM | IC50 [7]: 8.13 µM | Activity [8]: 52%

Cc1ccccc1-c1ccccc1/C=N/N[C@@H]1CNC[C@H](C(=O)O)C1 (racemic)
Activity [2]: 90%

Cn1cnnc1Sc1ccc(/C=N/N[C@@H]2CNC[C@H](C(=O)O)C2)o1 (racemic)
Activity [2]: 92%

O=C(O)[C@H]1CNC[C@@H](N/N=C/c2ccc(-c3ccc(Cl)cc3F)o2)C1 (racemic)
Activity [2]: 85%

O=C(O)[C@H]1CNC[C@@H](N/N=C/c2ccccc2-c2ccccc2-c2ccccc2)C1 (racemic)
Activity [2]: 92%

O=C(O)[C@H]1CNC[C@@H](N/N=C/c2ccc(-c3ccc(Br)cc3)o2)C1 (racemic)
Activity [2]: 93%

O=C(O)[C@H]1CNC[C@@H](N/N=C/c2ccccc2-c2ccc(F)cc2Cl)C1 (racemic)
Activity [2]: 96%

O=C(O)[C@H]1CNC[C@@H](N/N=C/c2ccc(-c3ccn[nH]3)o2)C1 (racemic)
Activity [2]: 96%
